Results from US20070203066A1, “Compositions and methods for inhibiting cellular proliferation” (priority 2005, published 2007).

Test system: HUVECs
Assay type: cell-based
Conditions: 48 h
Outline: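 Proliferation read-out: BrdU incorporation after 48-hour culture (37 ° C, 5% CO2) with graded peptide doses. Cells were in EBM with 2% FCS at 5,000 per well, driven by VEGF (5 ng/ml) or bFGF (10 ng/ml), added after ≥12-hour attachment.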

CC[C@H](C)[C@H](NC(=O)[C@H](C)NC(=O)[C@@H](NC(=O)[C@H](C)NC(=O)[C@H](CCC(N)=O)NC(=O)[C@H](CCCNC(=N)N)NC(=O)[C@H](CCCNC(=N)N)NC(=O)[C@H](CCCNC(=N)N)NC(=O)[C@H](CCCNC(=N)N)NC(=O)[C@H](CCCNC(=N)N)NC(C)=O)C(C)C)C(=O)N[C@@H](Cc1ccc(O)cc1)C(=O)N[C@@H](Cc1ccccc1)C(=O)N[C@@H](CCCCNC(=O)CN(CC(=O)NCCCC[C@H](NC(=O)[C@H](Cc1ccccc1)NC(=O)[C@H](Cc1ccc(O)cc1)NC(=O)[C@@H](NC(=O)[C@H](C)NC(=O)[C@@H](NC(=O)[C@H](C)NC(=O)[C@H](CCC(N)=O)NC(=O)[C@H](CCCNC(=N)N)NC(=O)[C@H](CCCNC(=N)N)NC(=O)[C@H](CCCNC(=N)N)NC(=O)[C@H](CCCNC(=N)N)NC(=O)[C@H](CCCNC(=N)N)NC(C)=O)C(C)C)[C@@H](C)CC)C(N)=O)C(=O)CCNC(=O)OC(C)(C)C)C(N)=O [Peptide 267]
IC50: < 10 µM

CC[C@H](C)[C@H](NC(=O)[C@H](C)NC(=O)[C@@H](NC(=O)[C@H](C)NC(=O)[C@H](CCC(N)=O)NC(=O)[C@H](CCCNC(=N)N)NC(=O)[C@H](CCCNC(=N)N)NC(=O)[C@H](CCCNC(=N)N)NC(=O)[C@H](C)NC(=O)[C@H](CCCNC(=N)N)NC(C)=O)C(C)C)C(=O)N[C@@H](CC(N)=O)C(=O)N[C@@H](Cc1ccccc1)C(=O)N[C@@H](CCCCNC(=O)CN(CC(=O)NCCCC[C@H](NC(=O)[C@H](Cc1ccccc1)NC(=O)[C@H](CC(N)=O)NC(=O)[C@@H](NC(=O)[C@H](C)NC(=O)[C@@H](NC(=O)[C@H](C)NC(=O)[C@H](CCC(N)=O)NC(=O)[C@H](CCCNC(=N)N)NC(=O)[C@H](CCCNC(=N)N)NC(=O)[C@H](CCCNC(=N)N)NC(=O)[C@H](C)NC(=O)[C@H](CCCNC(=N)N)NC(C)=O)C(C)C)[C@@H](C)CC)C(N)=O)C(=O)CCNC(=O)OC(C)(C)C)C(N)=O [Peptide 272]
IC50: < 10 µM

CC[C@H](C)[C@H](NC(=O)[C@H](CCCNC(=N)N)NC(=O)[C@@H](NC(=O)[C@H](CCCNC(=N)N)NC(=O)[C@H](CCC(N)=O)NC(=O)[C@H](CCCNC(=N)N)NC(=O)[C@H](CCCNC(=N)N)NC(=O)[C@H](CCCNC(=N)N)NC(=O)[C@H](CCCNC(=N)N)NC(=O)[C@H](CCCNC(=N)N)NC(C)=O)C(C)C)C(=O)N[C@@H](Cc1ccc(O)cc1)C(=O)N[C@@H](Cc1ccccc1)C(=O)N[C@@H](CCCCNC(=O)CN(CC(=O)NCCCC[C@H](NC(=O)[C@H](Cc1ccccc1)NC(=O)[C@H](Cc1ccc(O)cc1)NC(=O)[C@@H](NC(=O)[C@H](CCCNC(=N)N)NC(=O)[C@@H](NC(=O)[C@H](CCCNC(=N)N)NC(=O)[C@H](CCC(N)=O)NC(=O)[C@H](CCCNC(=N)N)NC(=O)[C@H](CCCNC(=N)N)NC(=O)[C@H](CCCNC(=N)N)NC(=O)[C@H](CCCNC(=N)N)NC(=O)[C@H](CCCNC(=N)N)NC(C)=O)C(C)C)[C@@H](C)CC)C(N)=O)C(=O)CCNC(=O)OC(C)(C)C)C(N)=O [Peptide 279]
IC50: < 10 µM

CC[C@H](C)[C@H](NC(=O)[C@H](C)NC(=O)[C@@H](NC(=O)[C@H](C)NC(=O)[C@H](CCC(N)=O)NC(=O)[C@H](CCCNC(=N)N)NC(=O)[C@H](CCCNC(=N)N)NC(=O)[C@H](CCCNC(=N)N)NC(=O)[C@H](CCCNC(=N)N)NC(=O)[C@H](C)NC(C)=O)C(C)C)C(=O)N[C@@H](Cc1ccc(O)cc1)C(=O)N[C@@H](Cc1ccccc1)C(=O)N[C@@H](CCCCNC(=O)CN(CC(=O)NCCCC[C@H](NC(=O)[C@H](Cc1ccccc1)NC(=O)[C@H](Cc1ccc(O)cc1)NC(=O)[C@@H](NC(=O)[C@H](C)NC(=O)[C@@H](NC(=O)[C@H](C)NC(=O)[C@H](CCC(N)=O)NC(=O)[C@H](CCCNC(=N)N)NC(=O)[C@H](CCCNC(=N)N)NC(=O)[C@H](CCCNC(=N)N)NC(=O)[C@H](CCCNC(=N)N)NC(=O)[C@H](C)NC(C)=O)C(C)C)[C@@H](C)CC)C(N)=O)C(=O)CCNC(=O)OC(C)(C)C)C(N)=O [Peptide 315]
IC50: < 10 µM
